Data as given in the supplement of paper PMC4862054.
Values joined by “and” are separate entries in the source; they are usually repeats but may differ in a detail not shown here. Equal entries are not always repeated.

Legend:
Conditions in all cases: incubation time: 72 h
HCC1143 [1] = assay: normalised viability (% of control), CellTiter-Blue; higher = more viable cells (100 = DMSO, 0 = benzethonium chloride kill control)
Description: (§1)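 DSRT, CellTiter-Blue viability, 72 h incubation. Signal is normalised to DMSO and benzethonium chloride controls. Value is the normalised response at dose 1.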

MDA-MB-436 [2] = assay: as above
Description: as §1

SK-BR-3 [3] = assay: as above
Description: as §1

CAL-51 [4] = assay: as above
Description: as §1

BT-474 [5] = assay: as above
Description: as §1

CAL-85-1 [6] = assay: as above
Description: as §1

CAL-148 [7] = assay: as above
Description: as §1

DU-4475 [8] = assay: as above
Description: as §1

MDA-MB-231 [9] = assay: as above
Description: as §1

BT-549 [10] = assay: as above
Description: as §1

MDA-MB-468 [11] = assay: as above
Description: as §1

HDQ-P1 [12] = assay: as above
Description: as §1

MFM-223 [13] = assay: as above
Description: as §1

HCC1143 [14] = assay: normalised response (% of control), CellTiter-Glo; higher = more viable cells (100 = DMSO, 0 = benzethonium chloride kill control)
Method in brief: (§2)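 Each value is the plate-normalised signal at one concentration of the series. Breast cancer cell lines (20 µl suspension) were incubated 72 h in 384-well plates with compound at 5 concentrations in 10-fold steps over a compound-specific 10,000-fold range. CellTox Green and then CellTiter-Glo were read, and each plate was scaled to 0.1 % DMSO (100) and a positive kill control (0).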

MDA-MB-436 [15] = assay: as above
Method in brief: as §2

SK-BR-3 [16] = assay: as above
Method in brief: as §2

CAL-51 [17] = assay: as above
Method in brief: as §2

BT-474 [18] = assay: as above
Method in brief: as §2

Hs578T = assay: as above
Method in brief: as §2

HCC1937 = assay: as above
Method in brief: as §2

CAL-85-1 [19] = assay: as above
Method in brief: as §2

CAL-148 [20] = assay: as above
Method in brief: as §2

HCC1599 = assay: as above
Method in brief: as §2

DU-4475 [21] = assay: as above
Method in brief: as §2

MDA-MB-231 [22] = assay: as above
Method in brief: as §2

MCF-10A = assay: as above
Method in brief: as §2

BT-549 [23] = assay: as above
Method in brief: as §2

CAL-120 = assay: as above
Method in brief: as §2

MDA-MB-468 [24] = assay: as above
Method in brief: as §2

MDA-MB-453 [25] = assay: as above
Method in brief: as §2

HDQ-P1 [26] = assay: as above
Method in brief: as §2

MFM-223 [27] = assay: as above
Method in brief: as §2

CAL-51 [28] = assay: normalised viability (% of control), CellTiter-Blue; higher = more viable cells (about 100 = DMSO control)
Description: (§3)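 DSRT, CellTiter-Blue viability, 72 h incubation. Signal is normalised to DMSO and benzethonium chloride controls. Value is the normalised response at dose 9.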

CAL-85-1 [29] = assay: as above
Description: as §3

CAL-148 [30] = assay: as above
Description: as §3

DU-4475 [31] = assay: as above
Description: as §3

MDA-MB-453 [32] = assay: as above
Description: as §3

HDQ-P1 [33] = assay: as above
Description: as §3

CAL-51 [34] = assay: as above; remark: listed apart in the source
Description: (§4)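 DSRT, CellTiter-Blue viability, 72 h incubation. Signal is normalised to DMSO and benzethonium chloride controls. Value is the normalised response at dose 8.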

CAL-85-1 [35] = assay: as above; remark: listed apart in the source
Description: as §4

CAL-148 [36] = assay: as above; remark: listed apart in the source
Description: as §4

DU-4475 [37] = assay: as above; remark: listed apart in the source
Description: as §4

MDA-MB-453 [38] = assay: as above; remark: listed apart in the source
Description: as §4

HDQ-P1 [39] = assay: as above; remark: listed apart in the source
Description: as §4

CCc1c2c(nc3ccc(OC(=O)N4CCC(N5CCCCC5)CC4)cc13)-c1cc3c(c(=O)n1C2)COC(=O)[C@]3(O)CC [Irinotecan] (1 nM)
normalised viability (HCC1143 [1]): 87.2% and 101% | normalised viability (MDA-MB-436 [2]): 97.6% and 117% | normalised viability (SK-BR-3 [3]): 84.7% and 99.9% | normalised viability (CAL-51 [4]): 106% and 112% | normalised viability (BT-474 [5]): 103% and 98% | normalised viability (CAL-85-1 [6]): 83% and 98.7% | normalised viability (CAL-148 [7]): 91.5% and 110% | normalised viability (DU-4475 [8]): 98.7% and 106% | normalised viability (MDA-MB-231 [9]): 82.3% and 98.2% | normalised viability (BT-549 [10]): 95.7% and 90.7% | normalised viability (MDA-MB-468 [11]): 96.8% and 102% | normalised viability (HDQ-P1 [12]): 89% and 101% | normalised viability (MFM-223 [13]): 93.6% and 104% | normalised response (HCC1143 [14]): 93.9% | normalised response (MDA-MB-436 [15]): 97.9% | normalised response (SK-BR-3 [16]): 110% | normalised response (CAL-51 [17]): 81.6% | normalised response (BT-474 [18]): 98.5% | normalised response (Hs578T): 95.9% | normalised response (HCC1937): 97.2% | normalised response (CAL-85-1 [19]): 116% | normalised response (CAL-148 [20]): 98.3% | normalised response (HCC1599): 105% | normalised response (DU-4475 [21]): 104% | normalised response (MDA-MB-231 [22]): 90.3% | normalised response (MCF-10A): 96.5% | normalised response (BT-549 [23]): 109% | normalised response (CAL-120): 94.2% | normalised response (MDA-MB-468 [24]): 107% | normalised response (MDA-MB-453 [25]): 114% | normalised response (HDQ-P1 [26]): 97.3% | normalised response (MFM-223 [27]): 94%

CO[C@H]1C[C@@H]2CC[C@@H](C)[C@@](O)(O2)C(=O)C(=O)N2CCCC[C@H]2C(=O)O[C@H]([C@H](C)C[C@@H]2CC[C@@H](OP(C)(C)=O)[C@H](OC)C2)CC(=O)[C@H](C)/C=C(\C)[C@@H](O)[C@@H](OC)C(=O)[C@H](C)C[C@H](C)/C=C/C=C/C=C/1C [Ridaforolimus] (1000 nM)
normalised viability (CAL-51 [28]): 31.3% | normalised viability (CAL-85-1 [29]): 50.6% | normalised viability (CAL-148 [30]): 35.4% | normalised viability (DU-4475 [31]): 6.1% | normalised viability (MDA-MB-453 [32]): 21.4% | normalised viability (HDQ-P1 [33]): 81.7%

S=P(N1CC1)(N1CC1)N1CC1 [Thio-TEPA] (100000 nM)
normalised viability (CAL-51 [28]): 99.7% | normalised viability (CAL-85-1 [29]): 101% | normalised viability (CAL-148 [30]): 111% | normalised viability (DU-4475 [31]): 102% | normalised viability (MDA-MB-453 [32]): 104% | normalised viability (HDQ-P1 [33]): 91.3%

COc1cc2/c(=N/c3ccc(Br)cc3F)nc[nH]c2cc1OCC1CCN(C)CC1 [Vandetanib] (3000 nM)
normalised viability (CAL-51 [34]): 49.2% | normalised viability (CAL-85-1 [35]): 50.5% | normalised viability (CAL-148 [36]): 77% | normalised viability (DU-4475 [37]): 125% | normalised viability (MDA-MB-453 [38]): 72.3% | normalised viability (HDQ-P1 [39]): 27.5%

COc1cc2/c(=N/c3ccc(Br)cc3F)nc[nH]c2cc1OCC1CCN(C)CC1 [Vandetanib] (10000 nM)
normalised viability (CAL-51 [28]): 15.3% | normalised viability (CAL-85-1 [29]): 17.3% | normalised viability (CAL-148 [30]): 59.6% | normalised viability (DU-4475 [31]): 111% | normalised viability (MDA-MB-453 [32]): 17.4% | normalised viability (HDQ-P1 [33]): 8.94%

COCC[n+]1c2c(n(Cc3cnccn3)c1C)C(=O)c1ccccc1C2=O [YM155] (3000 nM)
normalised viability (CAL-51 [34]): 1.46% | normalised viability (CAL-85-1 [35]): 2.51% | normalised viability (CAL-148 [36]): 2.73% | normalised viability (DU-4475 [37]): 0.2% | normalised viability (MDA-MB-453 [38]): 2.38% | normalised viability (HDQ-P1 [39]): 0.93%
